For the first experiment, the target named is human TRPV3 receptors (Homo sapiens (Human), UniProt Q8NET8). The experiment is described as follows: Calcium flux assay (FLIPR TETRA), inhibition of the 2-APB response. The following applies: recombinant HEK293 cells stably expressing TRPV3, Calcium-4 dye, 2-APB at its EC80. Format: cell-based. The method in brief: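 HEK293 cells stably expressing human and mouse TRPV3, plated the day before and dye-loaded 90-120 min in the dark, read on FLIPR Tetra. Peak fluorescence increase over baseline was expressed as percent of the maximal 2-APB response without compound.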
Sequence of human TRPV3 receptors (Q8NET8 whole entry): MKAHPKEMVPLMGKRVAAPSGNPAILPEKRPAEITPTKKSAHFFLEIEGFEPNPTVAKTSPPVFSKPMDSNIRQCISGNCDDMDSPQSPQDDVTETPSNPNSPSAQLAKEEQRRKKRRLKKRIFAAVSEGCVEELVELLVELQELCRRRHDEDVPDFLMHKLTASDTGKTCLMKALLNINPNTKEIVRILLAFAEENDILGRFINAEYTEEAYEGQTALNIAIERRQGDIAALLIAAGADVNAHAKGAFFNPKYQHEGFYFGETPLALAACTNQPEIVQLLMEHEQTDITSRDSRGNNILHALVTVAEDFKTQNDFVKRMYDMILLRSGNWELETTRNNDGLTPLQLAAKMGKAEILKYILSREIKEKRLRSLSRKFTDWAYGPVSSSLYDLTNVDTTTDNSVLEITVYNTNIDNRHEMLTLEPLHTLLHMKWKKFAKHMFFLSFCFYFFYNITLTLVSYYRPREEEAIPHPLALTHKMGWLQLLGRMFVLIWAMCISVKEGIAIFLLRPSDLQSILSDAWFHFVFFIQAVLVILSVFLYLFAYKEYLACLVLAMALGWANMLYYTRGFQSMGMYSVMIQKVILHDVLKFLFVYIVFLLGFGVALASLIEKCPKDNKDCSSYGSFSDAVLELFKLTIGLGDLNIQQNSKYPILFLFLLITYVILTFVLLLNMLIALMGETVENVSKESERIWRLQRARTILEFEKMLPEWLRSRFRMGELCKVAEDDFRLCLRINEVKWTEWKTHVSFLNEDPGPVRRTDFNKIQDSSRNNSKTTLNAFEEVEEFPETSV
On to `CC(C)[C@H](CO)NCc1nc(-c2ccc(C(F)(F)F)nc2)ccc1F` [Example 28, (2R)-2-({[5-fluoro-6′-(trifluoromethyl)-2,3′-bipyridin-6-yl]methyl}amino)-3-methylbutan-1-ol], for which the 50% inhibitory concentration (IC50) is 950 nM.
On to `CC(C)[C@H](CO)NCc1nc(C2CCCCC2)ccc1F` [Example 129], for which the IC50 was found to be 360 nM.
Take `CC(C)[C@H](CO)NCc1nc(-c2ccc(C(=O)N3CCCC3)cc2)ccc1F` [Example 276, {4-[5-fluoro-6-({[(2R)-1-hydroxy-3-methylbutan-2-yl]amino}methyl)pyridin-2-yl]phenyl}(pyrrolidin-1-yl)methanone]: the IC50 stood at 10900 nM.
`CCCN(CCC)C(=O)c1ccc(-c2ccc(F)c(CN[C@@H](CO)C(C)C)n2)cc1` [Example 277, 4-[5-fluoro-6-({[(2R)-1-hydroxy-3-methylbutan-2-yl]amino}methyl)pyridin-2-yl]-N,N-dipropylbenzamide]: the IC50 stood at 650 nM.
In the case of `CC(C)[C@H](CO)NCc1nc(-c2cncc(Cl)c2)ccc1F` [Example 278, (2R)-2-{[(5′-chloro-5-fluoro-2,3′-bipyridin-6-yl)methyl]amino}-3-methylbutan-1-ol], the IC50 was 2690 nM.
On the same count and under the same terms, the result for `CC(C)[C@H](CO)NCc1nc(-c2ccc(F)c(C#N)c2)ccc1F` [Example 279, 2-fluoro-5-[5-fluoro-6-({[(2R)-1-hydroxy-3-methylbutan-2-yl]amino}methyl)pyridin-2-yl]benzonitrile] reads 940 nM.
Same read-out and setting: with `Cc1cc(-c2ccc(F)c(CN[C@@H](CO)C(C)C)n2)ccc1F` [Example 280, (2R)-2-({[3-fluoro-6-(4-fluoro-3-methylphenyl)pyridin-2-yl]methyl}amino)-3-methylbutan-1-ol] the figure was 250 nM; with `CC(C)[C@H](CO)NCc1nc(-c2ccc(F)c(C(F)(F)F)c2)ccc1F` [Example 281, (2R)-2-[({3-fluoro-6-[4-fluoro-3-(trifluoromethyl)phenyl]pyridin-2-yl}methyl)amino]-3-methylbutan-1-ol], 390 nM.
Still for that read-out and setting: with `CC(C)[C@H](CO)NCc1nc(-c2cc(C(F)(F)F)ccc2F)ccc1F` [Example 282, (2R)-2-[({3-fluoro-6-[2-fluoro-5-(trifluoromethyl)phenyl]pyridin-2-yl}methyl)amino]-3-methylbutan-1-ol] the figure was 370 nM; with `COc1cc(-c2ccc(F)c(CN[C@@H](CO)C(C)C)n2)cc(F)c1F` [Example 283, (2R)-2-({[6-(3,4-difluoro-5-methoxyphenyl)-3-fluoropyridin-2-yl]methyl}amino)-3-methylbutan-1-ol], 260 nM.
Regarding `CC(C)[C@H](CO)NCc1cccc(C#Cc2ccc(F)cc2F)n1` [Example 284, (2R)-2-[({6-[(2,4-difluorophenyl)ethynyl]pyridin-2-yl}methyl)amino]-3-methylbutan-1-ol], the IC50 came to 520 nM.
Still for that read-out and setting: the result for `CC(C)[C@H](CO)NCc1cccc(C#Cc2ccccc2F)n1` [Example 285, (2R)-2-[({6-[(2-fluorophenyl)ethynyl]pyridin-2-yl}methyl)amino]-3-methylbutan-1-ol] reads 990 nM; that for `CC(C)[C@H](CO)NCc1cccc(C#Cc2ccc(Cl)cc2)n1` [Example 286, (2R)-2-[({6-[(4-chlorophenyl)ethynyl]pyridin-2-yl}methyl)amino]-3-methylbutan-1-ol], 520 nM; that for `Cc1nc(-c2ccccc2)sc1-c1ccc(F)c(CN[C@@H](CO)C(C)C)n1` [Example 287, (2R)-2-({[3-fluoro-6-(4-methyl-2-phenyl-1,3-thiazol-5-yl)pyridin-2-yl]methyl}amino)-3-methylbutan-1-ol], 730 nM.
Same read-out and setting: the result for `CC(C)[C@H](CO)NCc1nc(C#CCCC2CCCCC2)ccc1F` [Example 288, (2R)-2-({[6-(4-cyclohexylbut-1-yn-1-yl)-3-fluoropyridin-2-yl]methyl}amino)-3-methylbutan-1-ol] reads 170 nM; that for `CC(C)[C@H](CO)NCc1nc(C#Cc2ccccc2)ccc1F` [Example 289, (2R)-2-({[3-fluoro-6-(phenylethynyl)pyridin-2-yl]methyl}amino)-3-methylbutan-1-ol], 130 nM.
`CC(C)[C@H](CO)NCc1nc(-c2ccc(C(F)(F)F)s2)ccc1F` [Example 290]: the 50% inhibitory concentration (IC50) was 170 nM.
Still for that read-out and setting: with `CC(C)[C@H](CO)NCc1nc(-c2cc(C(F)(F)F)nn2C)ccc1F` [Example 291, (2R)-2-[({3-fluoro-6-[1-methyl-3-(trifluoromethyl)-1H-pyrazol-5-yl]pyridin-2-yl}methyl)amino]-3-methylbutan-1-ol] the figure was 790 nM; with `CC(C)[C@H](CO)NCc1nc(-c2cncc(C(F)(F)F)c2)ccc1F` [Example 292, (2R)-2-({[5-fluoro-5′-(trifluoromethyl)-2,3′-bipyridin-6-yl]methyl}amino)-3-methylbutan-1-ol], 280 nM; with `CC(C)[C@H](CO)NCc1nc(-c2ccc(C(F)(F)F)cc2C(F)(F)F)ccc1F` [Example 293, (2R)-2-[({6-[2,4-bis(trifluoromethyl)phenyl]-3-fluoropyridin-2-yl}methyl)amino]-3-methylbutan-1-ol], 550 nM.
The same measure, in the same setting: the result for `CC(C)[C@H](CO)NCc1nc(-c2ccc(F)c(Cl)c2)ccc1F` [Example 294, (2R)-2-({[6-(3-chloro-4-fluorophenyl)-3-fluoropyridin-2-yl]methyl}amino)-3-methylbutan-1-ol] reads 120 nM; that for “{1-[({2-[5-(trifluoromethyl)pyridin-2-yl]pyrimidin-4-yl}methyl)amino]cyclohexyl}methanol [Example 193]”, above 20000 nM.

For a further experiment, the system named is TRPV3.
Experiment: not given
Conditions: TRPV3 activation; relatively weak and nonspecific across TRPs; cited from earlier work.
Consider `c1ccc(B(OB(c2ccccc2)c2ccccc2)c2ccccc2)cc1` [DPBA, diphenylboronic anhydride], for which the concentration for a half-maximal effect (EC50) is around 40000 nM.
For `NCCOB(c1ccccc1)c1ccccc1` [Example 2-APB, 2-aminoethoxydiphenylborate], the 50% effective concentration (EC50) is around 40000 nM.

A further experiment relates to mouse Chronic Constriction Injury Model of neuropathic pain. The experiment is described as follows: Chronic Constriction Injury (CCI) model of neuropathic pain, mechanical allodynia (von Frey). It is filed as in vivo. Conditions: CD1 mice; acute oral administration, 100 mg/kg oral dose; 1 hour pretreatment P.O.; von Frey monofilaments. From the text: Chronic Constriction Injury (CCI) Model of Neuropathic Pain:
CD1 mice (Charles River) were used for these studies. Prior to testing (2-4 weeks) animals underwent a surgical procedure consisting of approximately 3 loose ligatures around the sciatic nerve. Briefly, following sterilization procedures, under isofluorane anesthetic, a 1.5 cm incision was made dorsal to the pelvis. The biceps femoris and gluteous superficialis (right side) were separated and the sciatic nerve exposed, isolated, and 2-4 loose ligatures (5-0 chromic gut) with <1 mm spacing were placed around it. Following hemostasis, the wound was sutured (layer of muscle closed with 5-0 nylon suture, and the wound closed with surgical staples) and coated with iodine. The mice were allowed to recover on a warming plate and are returned to their home cages (soft bedding) when able to walk on their own. Two to four weeks after the surgery, TRPV3 antagonsists were tested in these mice following P.O. (1 hour pretreatment) or I.P. (30 minutes pretreatment) dosing, and mechanical allodynia evaluated where the threshold to response was assessed using calibrated von Frey monofilaments. The von Frey monofilaments were applied to the hind paw at increasing forces until the animal responded by lifting its paw. […]
As for `CC(C)[C@H](CO)NCc1nc(-c2ccc(C(F)(F)F)nc2)ccc1F` [Example 28, (2R)-2-({[5-fluoro-6′-(trifluoromethyl)-2,3′-bipyridin-6-yl]methyl}amino)-3-methylbutan-1-ol], the “effects vs. vehicle in the mouse Chronic Constriction Injury Model of neuropathic pain” value was “statistically significant effects vs. vehicle”.
Regarding `CC(C)[C@H](CO)NCc1nc(C2CCCCC2)ccc1F` [Example 129], the “effects vs. vehicle in the mouse Chronic Constriction Injury Model of neuropathic pain” value is “statistically significant effects vs. vehicle”.

The record behind these values is patent US9012651B2, “TRPV3 modulators” (AbbVie Inc., priority 2011, dated 2015).
